Measured values from BindingDB's records for doi:10.1021/bi00098a028 (Arizona State University, 1991).

The molecules below were run against T1, Purine nucleoside phosphorylase (Homo sapiens, UniProt P00491) (assay: Competitive Inhibition Assay).
T1 sequence (P00491 whole entry): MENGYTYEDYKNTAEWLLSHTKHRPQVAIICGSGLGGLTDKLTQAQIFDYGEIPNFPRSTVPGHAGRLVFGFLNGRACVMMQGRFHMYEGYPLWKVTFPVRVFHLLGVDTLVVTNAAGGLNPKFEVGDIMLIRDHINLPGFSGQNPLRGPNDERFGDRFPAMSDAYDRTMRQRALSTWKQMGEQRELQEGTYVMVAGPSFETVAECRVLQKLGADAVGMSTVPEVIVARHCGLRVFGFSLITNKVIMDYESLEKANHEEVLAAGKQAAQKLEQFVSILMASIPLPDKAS
From the text: PNPase activity (guanosine to guanine and ribose 1-phosphate) was followed by measuring the decrease in absorbance at 268nm.
For `O=c1[nH]cnc2c(O)cccc12` [Substituted Quinazolin-4(3H)-one, 14], the Ki was 593 µM.
`Nc1cccc2nc[nH]c(=O)c12` [Substituted Quinazolin-4(3H)-one, 9] was tested, and the Ki was 337 µM.
`O=c1[nH]cnc2cccc(O)c12` [Substituted Quinazolin-4(3H)-one, 13] showed a Ki of 576 µM.
Work on `Cc1cc(O)c2nc[nH]c(=O)c2c1` [Substituted Quinazolin-4(3H)-one, 12] yielded a Ki of 618 µM.
`Nc1ccc(O)c2c(=O)[nH]cnc12` [Substituted Quinazolin-4(3H)-one, 15] was tested, and the Ki was 131 µM.
Molecule `O=c1[nH]cnc2c(O)ccc(O)c12` [Substituted Quinazolin-4(3H)-one, 11] has a Ki of 142 µM.
